PubChem BioAssay (NCI)
“And” between values parts separate entries of the source, which are not always exact repeats. Equal entries are not always repeated.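 Interpolation was linear, between the two tested concentrations surrounding the appropriate level; five concentrations were tested over 48 hours in 96-well plates. Definition used: TGI = concentration required for complete inhibition of growth.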 Starred links: 1 amine or outer side, 2 acyl side, 3 side chain; linkers in the order of their positions; H or OH if unused. Positions of bridges follow the written chain, without caps; N, C: chain ends. Non-standard residues stand in square brackets, D forms with d. Residues, ends and D or L forms follow the SMILES beside them. Chains are numbered I, II in the order given. Actinocin(1to9) = Cc1c2oc3c(C)ccc(C(=O)[*:2])c3nc-2c(C(=O)[*:1])c(N)c1=O; NMeV = CN[CH](C(=O)O)C(C)C; Sar = CNCC(=O)O

How the values were obtained:
Assay in all cases: NCI tumour cell line growth inhibition, 48 h
[1] = test system: MDA-MB-435
[2] = test system: CCRF-CEM leukemia
[3] = test system: TK-10 renal
[4] = test system: SNB-19 CNS
[5] = test system: LOX IMVI melanoma
[6] = test system: NCI-H522 lung
[7] = test system: SN12C renal
[8] = test system: MALME-3M melanoma
[9] = test system: UO-31 renal
[10] = test system: SK-MEL-28 melanoma

Row | SMILES | TGI [1] [µM] | TGI [2] [µM] | TGI [3] [µM] | TGI [4] [µM] | TGI [5] [µM] | TGI [6] [µM] | TGI [7] | TGI [8] [µM] | TGI [9] | TGI [10] [µM]
1 | Nc1c(C(=O)O)nnc2cc(Cl)c(Cl)cc12 | > 100 | > 100 | > 100 | > 100 | > 100 | > 100 | > 100 µM | > 100 | > 100 µM | 
2 | COc1ccc(C2NC(=S)Nc3c2c(=O)oc2c3ccc3ccccc32)cc1 (stereo not given) | > 100 | > 100 | > 100 | > 100 | > 100 | > 100 | > 100 µM | > 100 | > 100 µM | > 100
3 | Cc1cc(C)n(CC(Cn2nc(C)cc2C)=C(/C(Cl)=C(/Cl)Nc2ccc([N+](=O)[O-])cc2)[N+](=O)[O-])n1 | 8.95 | 2.48 | 12.5 | 17.6 | 6.06 | 5.01 | 17.6 µM | 13.4 | 6.76 µM | 29
4 | COc1nc2[nH]ccc2c(=O)[nH]1 |  | > 100 | > 100 | > 100 | > 100 |  | > 100 µM | > 100 | > 100 µM | > 100
5 | Cn1cnc([N+](=O)[O-])c1Sc1nc(N)nc2c1ncn2C1OC(CO)C(O)C1O (stereo not given) | 29.7 | > 100 | 87.6 | > 100 | > 21.4 | 33.5 | > 100 µM | > 100 | 37.4 µM | > 100
6 | CCC(C)C1NC(=O)C(NC(=O)c2c3nc4c(C(=O)NC5C(=O)NC(C(C)CC)C(=O)N6CCCC6C(=O)N(C)CC(=O)N(C)C(C(C)C)C(=O)OC5C)ccc(C)c4oc-3c(C)c(=O)c2N)C(C)OC(=O)C(C(C)C)N(C)C(=O)CN(C)C(=O)C2CCCN2C1=O (stereo not given) (I: TIP[Sar][NMeV] / II: TIP[Sar][NMeV]; ester I:1-I:C, II:1-II:C; linker I:N-II:N via Actinocin(1to9); configuration not given here) | 0.0169 | 0.0106 | 0.0755 | 0.0111 |  | 0.00176 | 0.192 µM and 0.263 µM | 0.0202 | 0.143 µM and 0.316 µM | 0.0152
7 | CC(C)(C)OC(=O)n1c2ccccc2c2c(=O)nc(N3CCCCC3)sc21 | > 100 | > 100 | > 100 | > 100 | > 100 | > 100 | > 100 µM | > 100 | 44.9 µM | > 100
8 | O=C(CSc1nc2ccc([N+](=O)[O-])cc2s1)c1ccc2ccccc2c1 | > 100 | > 100 | > 100 | > 100 | > 100 | > 100 | > 100 µM | > 100 | > 100 µM | > 100
9 | CN(C)c1ccc(C=Nc2ccc(Oc3ccc(Cl)cc3)c(Cl)c2)cc1 | > 100 | 57.7 | > 100 | 41.3 | 47.6 | 31.4 | 43.6 µM | 36.8 | 22.9 µM | 48.6
10 | Nc1ncnc2c1sc1nc3ccccc3n12 | > 100 | > 100 | > 100 | > 100 |  | > 95.8 | > 100 µM | > 100 | > 100 µM | > 100
11 | Cc1ccccc1N=Nc1c(O)c(S(=O)(=O)O)cc2cc(S(=O)(=O)O)ccc12 | > 100 | > 100 | > 100 | > 100 |  | > 100 | > 100 µM | > 100 | > 100 µM | > 100
12 | COc1cc2oc(=O)ccc2cc1C(=O)CC(C)C | > 100 | > 100 | > 100 | > 100 | > 100 | 56.4 | > 100 µM |  | > 100 µM | > 100
13 | O=c1ccc2nc3cc(Br)ccc3sc-2c1 |  | 72.5 | > 100 | > 100 |  | > 100 | > 100 µM | > 100 | > 100 µM | > 100
14 | O=c1c2cc(I)ccc2nc(SCc2nncs2)n1Cc1ccccc1 | > 100 | 70.8 | > 100 | > 100 | > 100 | 61 | > 100 µM |  | 2.6 µM | > 100
15 | C[N+]1(CCC(=O)c2ccco2)CC2CCC(CC2)C1 (stereo not given) | > 100 |  | > 100 | > 100 | > 100 | > 100 | > 100 µM | > 100 | > 100 µM | > 100
16 | Cn1c(=O)[nH]c2nncnc2c1=O |  | > 625 |  | 419 | > 625 | > 516 | > 497 µM | 119 | 358 µM | > 625
17 | O=c1[nH]c2nnc(COc3ccc(Cl)cc3Cl)n2nc1Cc1ccccc1 | > 100 | > 100 | 96.5 | > 100 | > 100 | > 100 | > 100 µM | > 100 | > 100 µM | > 100
18 | Cc1c(N2C(=O)/C(=C/c3ccc(Cl)cc3)N=C2c2ccccc2)c(=O)n(-c2ccccc2)n1C | 43.8 | > 100 | 60.3 |  | 35.6 | 44.8 | > 100 µM | > 100 | 93.7 µM | 
